Source: patent US8524290B2, “Non-occluding nasal moisturizer and methods of use” (priority 2010, dated 2013)

Test system: nasal epithelium
Assay: Transepidermal water loss of the nasal epithelium (TEWAMETER 300 evaporation meter)
Format: in vivo
Details: single nostril, after application, compared with basal state
Procedure: A single nostril is administered the test composition of Example 1 or a comparator solution, and transepidermal water loss is measured using an evaporation meter ([…] 300; Courage+Khazaka electronic GmbH, Germany) using the original probe. Subjects are positioned in a seated posture and hold their breath during measurements. Basal measurements are performed prior to application of a test composition.

O [water]
transepidermal water loss: Little change
